Assay results as given in patent publication US20100291010A1, “NOVEL ESTERS AND COMPOSITIONS AND USES THEREOF” (INNOSPEC LIMITED, priority 2007, published 2010).

Text: These two sunscreens are difficult to dissolve and keep in solution for use in sunscreen formulations for optimal SPF (Sun-Protection Factors). Higher solvency for a sunscreen ingredient is described as it allows higher concentrations of the sunscreen active ingredient in a formulation. […] The liquid organic sunscreens that are commonly used as octylsalicylate (OS) and octyl-methoxycinnamate (OMC).

Solubility in Finester LP (%): 10% | Solubility in Finsolv TN (%): 15%
SMILES: COc1ccc(C(=O)c2ccccc2)c(O)c1 [Benzophenone-3, 2 hydroxy-4-methoxybenzophenone]
